From US10160755B2 (Plexxikon Inc., priority 2015, dated 2018)

Assays:
FLT3-ITD = molecular target: T1, FLT3-ITD (Homo sapiens, UniProt P36888); assay: FLT3-ITD biochemical kinase assay (AlphaScreen)
T1 construct: FLT3-ITD; Invitrogen #PV6190
T1 sequence (P36888 1-993): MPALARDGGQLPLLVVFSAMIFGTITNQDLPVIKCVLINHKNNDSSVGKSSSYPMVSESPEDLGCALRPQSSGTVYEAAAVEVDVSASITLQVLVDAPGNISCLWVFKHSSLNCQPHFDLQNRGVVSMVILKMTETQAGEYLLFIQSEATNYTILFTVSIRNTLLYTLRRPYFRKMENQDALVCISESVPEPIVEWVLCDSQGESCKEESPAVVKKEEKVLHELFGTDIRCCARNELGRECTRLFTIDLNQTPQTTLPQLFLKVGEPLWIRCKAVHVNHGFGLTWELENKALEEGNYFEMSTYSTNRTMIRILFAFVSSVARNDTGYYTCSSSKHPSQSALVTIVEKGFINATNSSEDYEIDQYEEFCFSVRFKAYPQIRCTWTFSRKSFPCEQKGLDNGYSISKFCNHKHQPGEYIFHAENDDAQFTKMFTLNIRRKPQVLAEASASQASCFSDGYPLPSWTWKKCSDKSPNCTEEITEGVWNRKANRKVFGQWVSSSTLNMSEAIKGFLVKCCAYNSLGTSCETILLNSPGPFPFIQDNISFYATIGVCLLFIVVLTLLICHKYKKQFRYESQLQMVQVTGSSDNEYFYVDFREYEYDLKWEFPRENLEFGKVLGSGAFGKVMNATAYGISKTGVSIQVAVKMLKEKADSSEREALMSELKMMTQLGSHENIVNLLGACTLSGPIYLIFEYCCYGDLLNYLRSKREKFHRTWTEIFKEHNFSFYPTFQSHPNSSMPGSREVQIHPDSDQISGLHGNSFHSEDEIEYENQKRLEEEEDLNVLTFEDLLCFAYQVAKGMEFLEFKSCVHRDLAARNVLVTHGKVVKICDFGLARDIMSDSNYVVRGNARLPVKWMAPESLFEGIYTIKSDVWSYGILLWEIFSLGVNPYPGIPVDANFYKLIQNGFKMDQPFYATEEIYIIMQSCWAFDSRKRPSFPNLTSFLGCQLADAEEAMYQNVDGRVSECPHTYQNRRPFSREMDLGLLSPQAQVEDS
How it was run: (§1)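 Compounds were tested against recombinant enzyme using AlphaScreen detection of tyrosine-phosphorylated biotin-poly(Glu4-Tyr) (30 nM final). The ATP concentration differed by construct: 10 μM for D835Y, 100 μM for ITD.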

FLT3-D835Y = molecular target: T2, FLT3-D835Y (Homo sapiens, UniProt P36888, D835Y); assay: FLT3-D835Y biochemical kinase assay (AlphaScreen)
T2 construct: purchased Invitrogen PV3967
T2 sequence (P36888 27-993 D835Y): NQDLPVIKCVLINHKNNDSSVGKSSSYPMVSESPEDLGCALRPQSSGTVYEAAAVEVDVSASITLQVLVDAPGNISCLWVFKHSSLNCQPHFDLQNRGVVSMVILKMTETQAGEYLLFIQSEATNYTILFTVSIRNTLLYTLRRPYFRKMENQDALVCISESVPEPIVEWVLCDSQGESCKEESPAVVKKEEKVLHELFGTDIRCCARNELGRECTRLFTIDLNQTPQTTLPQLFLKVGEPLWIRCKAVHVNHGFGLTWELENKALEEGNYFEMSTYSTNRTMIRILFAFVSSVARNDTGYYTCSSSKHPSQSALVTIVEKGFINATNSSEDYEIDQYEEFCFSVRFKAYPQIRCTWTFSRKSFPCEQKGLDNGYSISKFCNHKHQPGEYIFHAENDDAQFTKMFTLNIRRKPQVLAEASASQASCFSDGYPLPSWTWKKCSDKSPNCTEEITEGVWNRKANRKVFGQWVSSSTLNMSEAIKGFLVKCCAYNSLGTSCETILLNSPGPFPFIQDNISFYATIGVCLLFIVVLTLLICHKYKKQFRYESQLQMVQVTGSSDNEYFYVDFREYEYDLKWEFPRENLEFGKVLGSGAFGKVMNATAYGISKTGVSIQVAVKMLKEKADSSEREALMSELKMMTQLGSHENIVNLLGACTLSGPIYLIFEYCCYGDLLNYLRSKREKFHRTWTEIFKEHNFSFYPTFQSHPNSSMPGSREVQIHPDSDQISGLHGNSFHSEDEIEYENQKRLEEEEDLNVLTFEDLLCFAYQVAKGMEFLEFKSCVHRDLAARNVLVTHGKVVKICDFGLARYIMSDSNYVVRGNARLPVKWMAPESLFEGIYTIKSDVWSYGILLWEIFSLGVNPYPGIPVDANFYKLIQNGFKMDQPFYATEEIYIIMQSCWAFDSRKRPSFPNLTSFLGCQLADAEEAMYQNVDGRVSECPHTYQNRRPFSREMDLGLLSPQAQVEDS
How it was run: as §1

IC50 (FLT3-ITD) [µM]	IC50 (FLT3-D835Y) [µM]	SMILES
0.0001 to 1	0.0001 to 1	CC(C)(C)n1cnc2ccc(-c3c[nH]c4ncc(C(=O)Nc5cccc(C#N)c5)cc34)cc21 [P-218, 3-(3-tert-butylbenzimidazol-5-yl)-N-(3-cyanophenyl)-1H-pyrrolo[2,3-b]pyridine-5-carboxamide]
0.0001 to 1	0.0001 to 1	CC(C)(C)n1cnc2ccc(-c3c[nH]c4ncc(-c5ccc(N6CCOCC6)cc5)nc34)cc21 [P-100, 4-[4-[7-(3-tert-butylbenzimidazol-5-yl)-5H-pyrrolo[2,3-b]pyrazin-2-yl]phenyl]morpholine]
0.0001 to 1	0.0001 to 1	CC(C)n1cnc2ccc(-c3c[nH]c4ncc(-c5cnn(C(F)F)c5)cc34)cc21 [P-267, 5-[1-(difluoromethyl)pyrazol-4-yl]-3-(3-isopropylbenzimidazol-5-yl)-1H-pyrrolo[2,3-b]pyridine]
0.0001 to 1	0.0001 to 1	COc1cc(C#Cc2cnc3[nH]cc(-c4ccc5ncn(C(C)(C)C)c5c4)c3c2)ccn1 [P-240, 1-(tert-butyl)-6-(5-((2-methoxypyridin-4-yl)ethynyl)-1H-pyrrolo[2,3-b]pyridin-3-yl)-1H-benzo[d]imidazole]
0.0001 to 1	0.0001 to 1	CC(C)(C)n1cnc2ccc(-c3c[nH]c4ncc(-c5ccc(F)c(C#N)c5)nc34)cc21 [P-230, 5-[7-(3-tert-butylbenzimidazol-5-yl)-5H-pyrrolo[2,3-b]pyrazin-2-yl]-2-fluoro-benzonitrile]
0.0001 to 1	0.0001 to 1	c1cc(-c2cnc3[nH]cc(-c4ccc5ncn(C6CCCNC6)c5c4)c3n2)cc(N2CCOCC2)n1 (stereo not drawn) [P-262, 4-[4-[7-[3-(3-piperidyl)benzimidazol-5-yl]-5H-pyrrolo[2,3-b]pyrazin-2-yl]-2-pyridyl]morpholine]
0.0001 to 1	0.0001 to 1	COc1cc(C(=O)Nc2cnc3[nH]cc(-c4ccc5ncn(C6CCCNC6)c5c4)c3c2)ccn1 (stereo not drawn) [P-247, 2-methoxy-N-[3-[3-(3-piperidyl)benzimidazol-5-yl]-1H-pyrrolo[2,3-b]pyridin-5-yl]pyridine-4-carboxamide]
0.0001 to 1	0.0001 to 1	COc1cnc2[nH]cc(-c3ccc4ncn(-c5ccc(F)c(C)c5)c4c3)c2c1 [P-129, 1-(4-fluoro-3-methyl-phenyl)-6-(5-methoxy-1H-pyrrolo[2,3-b]pyridin-3-yl)benzimidazole]
0.0001 to 1	0.0001 to 1	CC(C)n1cnc2ccc(-c3c[nH]c4ncc(-c5cnn(CC(F)(F)F)c5)cc34)cc21 [P-268, 1-isopropyl-6-[5-[1-(2,2,2-trifluoroethyl)pyrazol-4-yl]-1H-pyrrolo[2,3-b]pyridin-3-yl]benzimidazole]
0.0001 to 1	0.0001 to 1	COc1cnc2[nH]cc(-c3ccc4ncn(-c5ccc(Cl)cc5)c4c3)c2c1 [P-104, 1-(4-chlorophenyl)-6-(5-methoxy-1H-pyrrolo[2,3-b]pyridin-3-yl)benzimidazole]
0.0001 to 1	0.0001 to 1	N#Cc1cccc(-c2cnc3[nH]cc(-c4ccc5ncn(-c6ccc(F)c(Cl)c6)c5c4)c3c2)c1 [P-210, 3-[3-[3-(3-chloro-4-fluoro-phenyl)benzimidazol-5-yl]-1H-pyrrolo[2,3-b]pyridin-5-yl]benzonitrile]
0.0001 to 1	0.0001 to 1	CC(C)(C)n1cnc2ccc(-c3c[nH]c4ncc(-c5cnc(N6CCOCC6)nc5)cc34)cc21 [P-266, 4-[5-[3-(3-tert-butylbenzimidazol-5-yl)-1H-pyrrolo[2,3-b]pyridin-5-yl]pyrimidin-2-yl]morpholine]
0.0001 to 1	0.0001 to 1	COc1ncc(-c2cnc3[nH]cc(-c4ccc5ncn(C6CCCNC6)c5c4)c3n2)cn1 (stereo not drawn) [P-264, 2-(2-methoxypyrimidin-5-yl)-7-[3-(3-piperidyl)benzimidazol-5-yl]-5H-pyrrolo[2,3-b]pyrazine]
0.0001 to 1	0.0001 to 1	CC(C)S(=O)(=O)Nc1cccc(-c2cnc3[nH]cc(-c4ccc5ncn(C(C)(C)C)c5c4)c3n2)c1 [P-232, N-[3-[7-(3-tert-butylbenzimidazol-5-yl)-5H-pyrrolo[2,3-b]pyrazin-2-yl]phenyl]propane-2-sulfonamide]
0.0001 to 1	0.0001 to 1	COc1ncc(-c2cnc3[nH]cc(-c4ccc5ncn(C(C)(C)C)c5c4)c3n2)cn1 [P-263, 7-(3-tert-butylbenzimidazol-5-yl)-2-(2-methoxypyrimidin-5-yl)-5H-pyrrolo[2,3-b]pyrazine]
0.0001 to 1	0.0001 to 1	O=S1(=O)CCCCN1c1cccc(-c2cnc3[nH]cc(-c4ccc5ncn(C6CCCNC6)c5c4)c3n2)c1 (stereo not drawn) [P-253, 2-[3-[7-[3-(3-piperidyl)benzimidazol-5-yl]-5H-pyrrolo[2,3-b]pyrazin-2-yl]phenyl]thiazinane 1,1-dioxide]
0.0001 to 1	0.0001 to 1	COc1cc(C#Cc2cnc3[nH]cc(-c4ccc5ncn(C6CCCNC6)c5c4)c3c2)ccn1 (stereo not drawn) [P-241, 5-[2-(2-methoxy-4-pyridyl)ethynyl]-3-[3-(3-piperidyl)benzimidazol-5-yl]-1H-pyrrolo[2,3-b]pyridine]
0.0001 to 1	0.0001 to 1	C#Cc1cnc2[nH]cc(-c3ccc4ncn(C5CCCNC5)c4c3)c2n1 (stereo not drawn) [P-270, 2-ethynyl-7-[3-(3-piperidyl)benzimidazol-5-yl]-5H-pyrrolo[2,3-b]pyrazine]
0.0001 to 1	0.0001 to 1	c1cc(-c2cnc3[nH]cc(-c4ccc5ncn(C6CCCNC6)c5c4)c3c2)cc(N2CCOCC2)n1 (stereo not drawn) [P-223, 4-[4-[3-[3-(3-piperidyl)benzimidazol-5-yl]-1H-pyrrolo[2,3-b]pyridin-5-yl]-2-pyridyl]morpholine]
0.0001 to 1	0.0001 to 1	O=S1(=O)CCCN1c1cccc(-c2cnc3[nH]cc(-c4ccc5ncn(C6CCCNC6)c5c4)c3n2)c1 (stereo not drawn) [P-273, 2-[3-[7-[3-(3-piperidyl)benzimidazol-5-yl]-5H-pyrrolo[2,3-b]pyrazin-2-yl]phenyl]-1,2-thiazolidine 1,1-dioxide]
0.0001 to 1	0.0001 to 1	O=C(Nc1cccc(F)c1)c1cnc2[nH]cc(-c3ccc4ncn(C5CCCNC5)c4c3)c2c1 (stereo not drawn) [P-178, N-(3-fluorophenyl)-3-[3-(3-piperidyl)benzimidazol-5-yl]-1H-pyrrolo[2,3-b]pyridine-5-carboxamide]
0.0001 to 1	0.0001 to 1	COc1cnc2[nH]cc(-c3ccc4ncn(-c5ccc(F)cc5)c4c3)c2c1 [P-103, 1-(4-fluorophenyl)-6-(5-methoxy-1H-pyrrolo[2,3-b]pyridin-3-yl)benzimidazole]
0.0001 to 1	0.0001 to 1	C#Cc1cnc2[nH]cc(-c3ccc4ncn(C(C)(C)C)c4c3)c2c1 [P-244, 1-tert-butyl-6-(5-ethynyl-1H-pyrrolo[2,3-b]pyridin-3-yl)benzimidazole]
0.0001 to 1	0.0001 to 1	COc1cc(-c2cnc3[nH]cc(-c4ccc5ncn(C6CCCN(C)C6)c5c4)c3n2)ccn1 (stereo not drawn) [P-271, 2-(2-methoxy-4-pyridyl)-7-[3-(1-methyl-3-piperidyl)benzimidazol-5-yl]-5H-pyrrolo[2,3-b]pyrazine]
